Values after ≈ are worked out from the molar mass of the structure shown.

The experiment relates to quinolone-resistant Haemophilus influenzae strains. In words: Microdilution MIC determination in HTM for quinolone-resistant Haemophilus influenzae strains. In kind it is cell-based. As to the method: Inocula were prepared from chocolate agar plates incubated for a full 24 hours by the direct colony suspension method as follows: In a tube of Mueller-Hinton broth (Difco), an organism suspension was made to a density of a 0.5 McFarland standard (1×10^8 CFU/ml). The latter inoculum was diluted in sterile saline such that final organisms suspensions in trays yielded colony counts of 3-8×10^5 CFU/ml. Frozen microdilution trays were obtained from MicroMedia Systems, Inc. (Cleveland, Ohio, USA). Each tray contained all antimicrobials prepared in freshly made HTM. Wells were inoculated with 100 μl suspensions and incubated in ambient air at 35° C. for 20-24 hours. The lowest drug concentration showing no growth was read as the MIC. Standard quality control strains, including H. influenzae ATCC 49766, H. influenzae ATCC 49247, Staphylococcus aureus ATCC 29213 and Escherichia coli ATCC 25922 were included with each run.

The mark [1] stands for this setting: strain 1, mutations S133-A N138-S, None, S84-L.
The mark [2] stands for this setting: strain 2, mutations NONE, S458-L, S84-F, None.
The mark [3] stands for this setting: strain 3, mutations S84-I, None, S84-L.
Where [4] appears, read: strain 4, mutations D83-N, S458-S-T459, S84-F D88-N, Q468-R.
[5] abbreviates: strain 5, mutations E88-K, G405-S, S84-Y, None.
Where [6] appears, read: strain 6, mutations S84-R, D420-N, S84-L A117-E, None.
Setting [7] is: strain 7, mutations S84-R, D420-N, S84-L A117-E, None.
Setting [8] is: strain 8, mutations S84-R, D420-N, S84-L A117-E, None.
[9] abbreviates: strain 9, mutations S84-R N138-S, S458-A S474-N, S84-F D88-Y, None.
The mark [10] stands for this setting: strain 1, GyrA S84→L, ParC S133→A N138→S, GyrB None, ParE None.
The mark [11] stands for this setting: strain 2, GyrA S84→F, ParC None, GyrB None, ParE S458→L.
[12] abbreviates: strain 3, GyrA S84→L, ParC S84→I, GyrB None, ParE None.
The mark [13] stands for this setting: strain 4, GyrA S84→F D88→N, ParC D83→N, GyrB None, ParE T459→S.
[14] abbreviates: strain 5, GyrA S84→Y, ParC E88→K, GyrB Q468→R, ParE G405→S.
The mark [15] stands for this setting: strain 6, GyrA S84→L A117→E, ParC S84→R, GyrB None, ParE D420→N.
The mark [16] stands for this setting: strain 7, GyrA S84→L A117→E, ParC S84→R, GyrB None, ParE D420→N.
The mark [17] stands for this setting: strain 8, GyrA S84→L A117→E, ParC S84→R, GyrB None, ParE D420→N.
The mark [18] stands for this setting: strain 9, GyrA S84→F D88→Y, ParC S84→R N138→S, GyrB None, ParE S458→A S474→N.

On to `Cc1c(F)c(N2CCNC(C)C2)cc2c1c(=O)c(C(=O)O)cn2C1CC1` (stereo not drawn) [Grepa], for which the MIC is 0.25 µg/mL (≈ 0.696 µM) under setting [1]; 0.5 µg/mL (≈ 1.39 µM) under setting [2]; 0.5 µg/mL (≈ 1.39 µM) under setting [3]; 2 µg/mL (≈ 5.56 µM) under setting [4]; 1 µg/mL (≈ 2.78 µM) under setting [5]; 1 µg/mL (≈ 2.78 µM) under setting [6]. The MIC was 1 µg/mL (≈ 2.78 µM) under setting [7], 1 µg/mL (≈ 2.78 µM) under setting [8] and 4 µg/mL (≈ 11.1 µM) under setting [9].
Compound `C[C@H]1COc2c(N3CCN(C)CC3)c(F)cc3c(=O)c(C(=O)O)cn1c23` [Lev] had an MICs under setting [10] of 0.5 µg/mL; an MICs under setting [11] of 0.25 µg/mL; an MICs under setting [12] of 1 µg/mL; an MICs under setting [13] of 0.5 µg/mL; an MICs under setting [14] of 1 µg/mL; an MICs under setting [15] of 2 µg/mL. Further, the MICs is 2 µg/mL under setting [16], 2 µg/mL under setting [17] and 4 µg/mL under setting [18].
`Cc1c(F)c(N2CCNC(C)C2)cc2c1c(=O)c(C(=O)O)cn2C1CC1` (stereo not drawn) [Gre] registered an MICs under setting [10] of 0.25 µg/mL; an MICs under setting [11] of 0.5 µg/mL; an MICs under setting [12] of 0.5 µg/mL; an MICs under setting [13] of 2 µg/mL; an MICs under setting [14] of 1 µg/mL; an MICs under setting [15] of 1 µg/mL. This compound also gave an MICs under setting [16] of 1 µg/mL, an MICs under setting [17] of 1 µg/mL and an MICs under setting [18] of 4 µg/mL.
With `C[C@@H]1CN(c2c(F)c(N)c3c(=O)c(C(=O)O)cn(C4CC4)c3c2F)C[C@H](C)N1` [Spar], the MIC runs as follows: under setting [1], 0.25 µg/mL (≈ 0.637 µM); under setting [2], 0.25 µg/mL (≈ 0.637 µM); under setting [3], 0.5 µg/mL (≈ 1.27 µM); under setting [4], 0.25 µg/mL (≈ 0.637 µM); under setting [5], 1 µg/mL (≈ 2.55 µM); under setting [6], 1 µg/mL (≈ 2.55 µM). For the same compound, the MIC is, setting by setting: under setting [7], 1 µg/mL (≈ 2.55 µM); under setting [8], 1 µg/mL (≈ 2.55 µM); under setting [9], 8 µg/mL (≈ 20.4 µM).
On to `O=C(O)c1cn(C2CC2)c2cc(N3CCNCC3)c(F)cc2c1=O` [Cip], for which the MICs reads like this: under setting [10], 0.5 µg/mL; under setting [11], 0.25 µg/mL; under setting [12], 1 µg/mL; under setting [13], 1 µg/mL; under setting [14], 1 µg/mL; under setting [15], 2 µg/mL. Also, the MICs stood at 2 µg/mL under setting [16], 2 µg/mL under setting [17] and 8 µg/mL under setting [18].
For `CO/N=C1\CN(c2nc3c(cc2F)c(=O)c(C(=O)O)cn3C2CC2)CC1CN` (stereo not drawn) [Gemi], the MIC under setting [1] is 0.03 µg/mL (≈ 0.077 µM); the MIC under setting [2] was 0.125 µg/mL (≈ 0.321 µM); the MIC under setting [3] worked out at 0.125 µg/mL (≈ 0.321 µM); the MIC under setting [4] is 0.25 µg/mL (≈ 0.642 µM); the MIC under setting [5] worked out at 0.25 µg/mL (≈ 0.642 µM); the MIC under setting [6] worked out at 0.5 µg/mL (≈ 1.28 µM). For the same compound, the MIC is 0.5 µg/mL (≈ 1.28 µM) under setting [7], 0.5 µg/mL (≈ 1.28 µM) under setting [8] and 1 µg/mL (≈ 2.57 µM) under setting [9].
`N[C@@H]1[C@H]2CN(c3nc4c(cc3F)c(=O)c(C(=O)O)cn4-c3ccc(F)cc3F)C[C@@H]12` [Trova] registered an MIC under setting [1] of 1 µg/mL (≈ 2.4 µM); an MIC under setting [2] of 0.25 µg/mL (≈ 0.6 µM); an MIC under setting [3] of 1 µg/mL (≈ 2.4 µM); an MIC under setting [4] of 0.5 µg/mL (≈ 1.2 µM); an MIC under setting [5] of 1 µg/mL (≈ 2.4 µM); an MIC under setting [6] of 4 µg/mL (≈ 9.61 µM). Also, the MIC runs as follows: under setting [7], 4 µg/mL (≈ 9.61 µM); under setting [8], 4 µg/mL (≈ 9.61 µM); under setting [9], 8 µg/mL (≈ 19.2 µM).
In turn, `C[C@@H]1CN(c2c(F)c(N)c3c(=O)c(C(=O)O)cn(C4CC4)c3c2F)C[C@H](C)N1` [Spa] registered an MICs under setting [10] of 0.25 µg/mL; an MICs under setting [11] of 0.25 µg/mL; an MICs under setting [12] of 0.5 µg/mL; an MICs under setting [13] of 0.25 µg/mL; an MICs under setting [14] of 1 µg/mL; an MICs under setting [15] of 1 µg/mL. In addition, the MICs was 1 µg/mL under setting [16], 1 µg/mL under setting [17] and 8 µg/mL under setting [18].
